From ChEMBL document CHEMBL1132561, “Identification and characterization of m1 selective muscarinic receptor antagonists1” (J Med Chem, 1999)

Assays:
[1] = molecular target: T1, Muscarinic acetylcholine receptor M2 (Homo sapiens, UniProt P08172); experiment: biochemical; type: cell-based, CHO
T1 sequence (P08172 whole entry): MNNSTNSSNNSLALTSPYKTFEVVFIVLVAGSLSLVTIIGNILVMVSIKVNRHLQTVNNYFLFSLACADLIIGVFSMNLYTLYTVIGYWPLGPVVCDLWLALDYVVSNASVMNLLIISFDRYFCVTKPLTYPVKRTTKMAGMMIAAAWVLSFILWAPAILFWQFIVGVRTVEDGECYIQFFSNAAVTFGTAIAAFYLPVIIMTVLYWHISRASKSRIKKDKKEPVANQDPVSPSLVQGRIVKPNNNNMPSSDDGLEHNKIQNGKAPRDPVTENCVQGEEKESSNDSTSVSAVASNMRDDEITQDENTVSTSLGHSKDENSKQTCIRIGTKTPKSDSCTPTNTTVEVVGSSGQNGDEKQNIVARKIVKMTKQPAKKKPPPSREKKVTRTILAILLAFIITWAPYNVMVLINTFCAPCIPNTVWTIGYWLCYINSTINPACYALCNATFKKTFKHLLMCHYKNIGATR
Description: Displacement of [3H]NMS binding to human Muscarinic acetylcholine receptor M2 using membranes from transfected CHO cells

[2] = molecular target: T2, Muscarinic acetylcholine receptor M4 (Homo sapiens, UniProt P08173); experiment: biochemical; type: cell-based, CHO
T2 sequence (P08173 whole entry): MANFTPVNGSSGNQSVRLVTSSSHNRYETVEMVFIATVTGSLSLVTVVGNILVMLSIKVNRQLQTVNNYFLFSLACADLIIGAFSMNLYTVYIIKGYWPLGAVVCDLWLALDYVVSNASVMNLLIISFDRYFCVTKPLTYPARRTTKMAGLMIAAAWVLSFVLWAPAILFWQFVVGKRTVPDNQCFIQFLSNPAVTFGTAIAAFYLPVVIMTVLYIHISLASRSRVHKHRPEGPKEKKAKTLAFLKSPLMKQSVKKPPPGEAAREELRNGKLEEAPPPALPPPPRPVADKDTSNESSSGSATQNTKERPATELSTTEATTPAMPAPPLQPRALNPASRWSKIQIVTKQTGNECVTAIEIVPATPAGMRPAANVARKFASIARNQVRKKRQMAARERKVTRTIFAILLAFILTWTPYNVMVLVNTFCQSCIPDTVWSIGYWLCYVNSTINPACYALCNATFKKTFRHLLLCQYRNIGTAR
Description: Displacement of [3H]NMS binding to human Muscarinic acetylcholine receptor M4 using membranes from transfected CHO cells

SMILES | IC50 [1] | IC50 [2]
CCN1CCC(c2ccccc2)=C(C(=O)OCC(c2ccccc2)c2ccccc2)C1 | 2570 nM | 7710 nM
CCCCCCOC(=O)[C@H]1CN(CC)CC[C@H]1c1ccccc1 | 405 nM | 573 nM
CCN1CC=C(c2ccccc2)C(C(=O)OCCCc2ccccc2)C1 (configuration not stated) | 2210 nM | 1130 nM
CCCCCCCCOC(=O)C1CN(CC)CC=C1c1ccccc1 (configuration not stated) | – | 1250 nM
CCCCCCCCOC(=O)C1=C(c2ccccc2)CCN(CC)C1 | 52.5 nM | 259 nM
CCN1CC=C(c2ccccc2)C(C(=O)OCc2ccccc2)C1 (configuration not stated) | 241 nM | 146 nM
CCN1CC=C(c2ccccc2)C(C(=O)OCC(c2ccccc2)c2ccccc2)C1 (configuration not stated) | 475 nM | 4160 nM
CCN1CCC(c2ccccc2)=C(C(=O)OCCCc2ccccc2)C1 | 1040 nM | 1160 nM
CCN1CCC(c2ccccc2)=C(C(=O)OCc2ccccc2)C1 | 451 nM | 473 nM
